US5036045A, “Method for increasing growth hormone secretion” (The University of Virginia Alumni Patents Foundation, priority 1988, dated 1991)

What was measured:
growth hormone secretion [1] = assay: 14-day continuous intravenous infusion by mechanical pump, 24 hour growth hormone profile; format: in vivo, human; conditions: 10 ng/kg/min intravenous over 14 days, 4 subjects
Method: Growth hormone releasing factor was administered by mechanical pump which delivered a dose of 10 ng/kg/min by the intravenous route over 14 days in 4 subjects aged 26 to 31 years. The profile of growth hormone secretion was measured over 24 hours before the initiation of the infusion, on the fourteenth day of the infusion, and two weeks after stopping the infusion.

growth hormone secretion [2] = assay: 6 hour infusion followed by insulin (hypoglycemia) stimulus; format: in vivo, human; conditions: insulin given at the end, compared to hypoglycemia after vehicle infusion
Method: (§1) In a most recent study the 6 hour infusion was repeated but insulin was given at the end of the infusion to provide an alternate stimulus (hypoglycemia) for growth hormone secretion compared to hypoglycemia after vehicle infusion. […] Next 24 hour infusions of growth hormone releasing factor were performed and the growth hormone and growth hormone releasing factor secretory profile of a patient were studied with ectopic growth hormone releasing factor secretion (Vance et al, J. Clin. Invest., 1985, 75, 1584-1590). In this patient growth hormone secretion was pulsatile despite continuously elevated immunoreactive growth hormone releasing factor levels. To determine if pulsatile growth hormone secretion is maintained in normal subjects, vehicle or growth hormone releasing factor-40, 2 ng/kg/min, was administered to six healthy young men for 24 hours and gave a supramaximal intravenous bolus dose of growth hormone releasing factor-40, 3 μg/kg after 23.5 hours of infusion.

[3] = adverse effects of continuous administration; format: in vivo
growth = conditions: normal rat, cited from earlier work
growth hormone secretion [4] = conditions: cited from earlier work
growth hormone secretion [5] = assay: 24 hour infusion in healthy young men with supramaximal bolus after 23.5 hours; format: in vivo, human; conditions: 2 ng/kg/min for 24 hours, six healthy young men
Method: as §1

growth hormone secretion [6] = conditions: after 6 hours infusions of 1, 3.3 and 10 ng/kg/min; cited from earlier work

Substance	response to a supramaximal dose of growth hormone releasing factor (growth hormone secretion [1])	growth hormone secretion (growth hormone secretion [1]; measured on fourteenth day of infusion)	serum Insulin Growth Factor-1 (IGF-1) level (growth hormone secretion [1]; marker of biological activity of growth hormone)	desensitization to growth hormone releasing factor (growth hormone secretion [2])	blood pressure, pulse rate, body temperature [3]	side effects [3]	growth, continuous administration (growth; continuous administration)	growth, pulsatile administration (growth; pulsatile administration)	release of growth hormone in response to supramaximal dose at end of infusion (growth hormone secretion [4]; end of the 6 or 24 hour infusion)	growth hormone secretion over the duration of the infusion (growth hormone secretion [4]; short-term administration (6-24 hours))	effect on naturally occuring growth hormone pulses (growth hormone secretion [5])	growth hormone secretion compared to vehicle infusion (growth hormone secretion [5])	pulsatile growth hormone secretion during infusion (growth hormone secretion [5])	growth hormone response to supramaximal bolus at end of infusion (growth hormone secretion [6])
growth hormone releasing factor	normal or accentuated responses	augmented growth hormone secretion	rise in serum Insulin Growth Factor-1 (IGF-1) level	partial homologous desensitization	No changes in blood pressure, pulse rate, or body temperature	no side effects	does not	accelerates growth	reduced release of growth hormone	stimulates growth hormone secretion intermittently	–	–	–	–
growth hormone releasing factor-40 (YADAIFTNSYRKVLGQLSARKLLQDIMSRQQGESNQERGA; Somatoliberin; UniProt P01286 32-71, looked up, fragment) [40 amino acid form of human growth hormone releasing factor]	–	–	–	–	–	–	–	–	–	–	augmentation of naturally occuring growth hormone pulses	greater growth hormone secretion than did vehicle infusion	pulsatile growth hormone secretion was maintained	inversely related to the 6 hour infusion dose
